Experiments:
[1] = Sink Conditions dissolution testing of Formulation C5-12; type: physicochemical; settings: N = 6
Method: The release profiles of Formulation C5-12 of Example 1 were evaluated in a Sink Conditions dissolution study. The study was conducted in 900 mL of dissolution medium using a standard USP dissolution Apparatus 2 (paddle) operating at 100 RPM at 37±0.5° C. The dissolution medium was a 0.05 M sodium phosphate buffer pH 6.8 with 15 mM cTAB as a surfactant.

[2] = Human pharmacokinetic study, Example 4 Arm II (single dose, crossover); type: in vivo; settings: both sexes, human, oral, Example 4 Arm II, single dose, non-fasting, N = 13; for half-life / AUC(0-t) / AUC(0-inf) / Tmax: blood; for AUC(0-t): read-out: AUCt, geometric mean; for AUC(0-inf): read-out: AUC∞, geometric mean; for Tmax: read-out: Tmax; for concentration at 24 h / Cmax: in vivo; for concentration at 24 h: read-out: C24, geometric mean; for Cmax: read-out: Cmax, geometric mean
Method: Formulation C5-12 and a second formulation were tested in Arm II of the study. Adult male and female subjects (N=30 for combined Arm I and Arm II studies) in general good health were selected to participate in the study according to the selection criteria. Subjects meeting the selection criteria were randomly assigned to one of the Regimen sequences as shown below in Table 4-A.
Study drug was administered as provided below in Table 4-B.
Each study regimen was taken orally with approximately 240 mL of water approximately 30 minutes after the start of standardized breakfast. Study regimens were administered orally in the morning on Study Day 1 of each period. For Regimen A the evening dose of the Single Tablet was taken orally with approximately 240 mL of water approximately 30 minutes after the start of the evening snack. Serial blood samples for pharmacokinetic analysis were collected 72 hours after dosing in each period.
The data presented in Tables 4-C through 4-G are preliminary data and are subject to database lock and final data verification.

[3] = Human pharmacokinetic study, Example 4 Arm III (14-day multiple dose, steady state); type: in vivo
[4] = Human pharmacokinetic study, Example 5 Arm I (single dose, replicated crossover); type: in vivo
Method: (§1) A Phase 1, non-fasting, open-label, two-arm, four-period, randomized, crossover study was conducted to compare and characterize the pharmacokinetics of (i) Triple Tablet when co-administered with Single Tablet, and (ii) Formulation C5-12 as discussed below. Part 1 was a single dose, two-treatment, randomized, four period, two sequence replicated crossover study with 88 subjects. Doses in the four periods were separated by at least 10 days. Part 2 was a multiple-dose, two-treatment, two period, randomized crossover study with 66 subjects. Dosing in each period was 14 days and doses in the two periods were separated by at least 10 days.
(§2) Adult male and female subjects in general good health were selected to participate in the study according to the selection criteria. Subjects meeting the selection criteria were randomly assigned to one of the sequences of Regimens A and B (four sequences for Arm I and two sequences for Arm II) as shown below in Table 5-A.
(§3) Study drug was administered as provided below in Table 5-B.
(§4) Each study regimen was taken orally with approximately 240 mL of water approximately 30 minutes after the start of standardized breakfast. Study regimens were administered orally in the morning on Study Day 1 of each period. Serial blood samples for pharmacokinetic analysis were collected 72 hours after dosing in each period.
Tables 5-C, 5-D, 5-E, and 5-F below report the Arm I pharmacokinetic data for Formulation C5-12 (separately reported for each of Compounds 1, 2, 3, and 4). Table 5-G presents the results of a relative bioavailability and 90% confidence interval analysis of the pharmacokinetic data for Formulation C5-12 relative to the reference regimen. The data presented in Tables 5-C through 5-G are preliminary data and are subject to database lock and final data verification by the statistician.

[5] = Human pharmacokinetic study, Example 5 Arm II (multiple dose, crossover); type: in vivo; settings: Example 5 Arm II; for AUC: read-out: AUC24, geometric mean; for concentration at 24 h: read-out: C24, geometric mean; for Cmax: read-out: Cmax, geometric mean
Method: as §1, §2, §3, §4

[6] = Solubility (general statement); type: physicochemical; settings: aqueous
[7] = 3 Formulation C5-12 tablets, Regimen E (C5-12): three Formulation C5-12 tablets in the morning
[8] = Regimen A (reference regimen): two Triple Tablets + one Single Tablet morning, one Single Tablet evening
[9] = Formulation C5-12, Day 14 versus Day 1
[10] = human, in vivo, oral, 3 Formulation C5-12 tablets daily, three Formulation C5-12 tablets daily for 14 days, non-fasting, Day 14, N = 14
[11] = Formulation C5-12 relative to the reference regimen
[12] = multiple dose 14 days, non-fasting, Regimen B (reference regimen): two Triple Tablets + one Single Tablet morning, one Single Tablet evening, N = 63
[13] = both sexes, human, blood, oral, 3 film-coated Formulation C5-12 tablets daily, multiple dose 14 days, non-fasting, Regimen A (C5-12): three film-coated Formulation C5-12 tablets daily, N = 63
[14] = both sexes, human, blood, oral, multiple dose 14 days, non-fasting, Regimen B (reference regimen): two Triple Tablets + one Single Tablet morning, one Single Tablet evening, N = 63

For `Cc1cnc(C(=O)N[C@H]2CCCCC/C=C\[C@@H]3C[C@@]3(C(=O)NS(=O)(=O)C3CC3)NC(=O)[C@@H]3C[C@@H](Oc4nc5ccccc5c5ccccc45)CN3C2=O)cn1` [Compound 1, (2R,6S,13aS,14aR,16aS,Z)-N-(cyclopropylsulfonyl)-6-(5-methylpyrazine-2-carboxamido)-5,16-dioxo-2-(phenanthridin-6-yloxy)-1,2,3,5,6,7,8,9,10,11,13a,14,14a,15,16,16a-hexadecahydrocyclopropa[e]pyrrolo[1,2-a][1,4]diazacyclopentadecine-14a-carboxamide], which “% Released” value ([1]; 1 hour, 900 mL 0.05 M sodium phosphate buffer pH 6.8, 15 mM cTAB, USP Apparatus 2, 100 RPM, 37 °C) is on record?
Its value is 54%.

What about the “% Released” value ([1]; 4 hours, pH 6.8 buffer, 15 mM cTAB) of the same compound?
Its value is 98%.

What about the “% Released” value ([1]; 6 hours, pH 6.8 buffer, 15 mM cTAB) of the same compound?
Its value is 99%.

And the “% Released” value ([1]; 8 hours, pH 6.8 buffer, 15 mM cTAB)?
The value was 102%.

What about the “% Released” value ([1]; 12 hours, pH 6.8 buffer, 15 mM cTAB) of the same compound?
Its value is 102%.

And the “% Released” value ([1]; 16 hours, pH 6.8 buffer, 15 mM cTAB)?
The value was 101%.

What about the half-life [2, 7] of the same compound?
The half-life was 306 min.

And the AUC(0-t) [2, 7]?
Its AUC(0-t) is 4310 ng·h/mL.

And the AUC(0-inf) [2, 7]?
Its AUC(0-inf) is 4330 ng·h/mL.

And the Tmax [2, 7]?
The Tmax was 5.7 h.

What about the half-life [2, 8] of the same compound?
Its half-life is 312 min.

And the AUC(0-t) [2, 8]?
The AUC(0-t) was 4670 ng·h/mL.

What about the AUC(0-inf) [2, 8] of the same compound?
Its AUC(0-inf) is 4690 ng·h/mL.

And the Tmax [2, 8]?
Its Tmax is 4.8 h.

And the concentration at 24 h [2, 7]?
Its concentration at 24 h is 24.5 ng/mL.

What about the Cmax [2, 7] of the same compound?
The Cmax was 647 ng/mL.

What about the concentration at 24 h [2, 8] of the same compound?
Its concentration at 24 h is 24.3 ng/mL.

What about the Cmax [2, 8] of the same compound?
The Cmax was 900 ng/mL.

And the “AUC24, RATIO” value [3, 9]?
The value was 2.28.

What about the “C24, RATIO” value [3, 9] of the same compound?
Its value is 1.00.

And the “Cmax, RATIO” value [3, 9]?
The value was 2.52.

What about the Tmax ([3]; human, in vivo, oral, 3 Formulation C5-12 tablets daily, three Formulation C5-12 tablets daily for 14 days, non-fasting, Day 1, N = 14) of the same compound?
Its Tmax is 6.7 h.

What about the AUC ([3]; human, in vivo, oral, 3 Formulation C5-12 tablets daily, three Formulation C5-12 tablets daily for 14 days, non-fasting, Day 1, N = 14, read-out: AUC24, geometric mean) of the same compound?
Its AUC is 4640 ng·h/mL.

What about the concentration at 24 h ([3]; human, in vivo, oral, 3 Formulation C5-12 tablets daily, three Formulation C5-12 tablets daily for 14 days, non-fasting, Day 1, N = 14, read-out: C24, geometric mean) of the same compound?
Its concentration at 24 h is 33.7 ng/mL.

And the Cmax ([3]; human, in vivo, oral, 3 Formulation C5-12 tablets daily, three Formulation C5-12 tablets daily for 14 days, non-fasting, Day 1, N = 14, read-out: Cmax, geometric mean)?
The Cmax was 651 ng/mL.

What about the Tmax [3, 10] of the same compound?
The Tmax was 5.1 h.

What about the half-life [3, 10] of the same compound?
Its half-life is 276 min.

And the AUC ([3]; human, in vivo, oral, 3 Formulation C5-12 tablets daily, three Formulation C5-12 tablets daily for 14 days, non-fasting, Day 14, N = 14, read-out: AUC24, geometric mean)?
The AUC was 10600 ng·h/mL.

And the concentration at 24 h ([3]; human, in vivo, oral, 3 Formulation C5-12 tablets daily, three Formulation C5-12 tablets daily for 14 days, non-fasting, Day 14, N = 14, read-out: C24, geometric mean)?
The concentration at 24 h was 33.7 ng/mL.

And the Cmax ([3]; human, in vivo, oral, 3 Formulation C5-12 tablets daily, three Formulation C5-12 tablets daily for 14 days, non-fasting, Day 14, N = 14, read-out: Cmax, geometric mean)?
The Cmax was 1640 ng/mL.

What about the β ([3]; three Formulation C5-12 tablets daily for 14 days, non-fasting, Day 14, N = 14) of the same compound?
The β was 0.151 h⁻¹.

And the “Cmax lower than Cmax for the reference regimen” value [4, 11]?
Its value is 30%.

What about the Cmax ([4]; both sexes, human, blood, oral, 3 film-coated Formulation C5-12 tablets, single dose, non-fasting, Regimen A (C5-12): three film-coated Formulation C5-12 tablets, N = 172, read-out: Cmax, geometric mean) of the same compound?
The Cmax was 618 ng/mL.

And the AUC(0-t) ([4]; both sexes, human, in vivo, oral, 3 film-coated Formulation C5-12 tablets, single dose, non-fasting, Regimen A (C5-12): three film-coated Formulation C5-12 tablets, N = 172, read-out: AUCt, geometric mean)?
The AUC(0-t) was 4460 ng·h/mL.

And the AUC(0-inf) ([4]; both sexes, human, in vivo, oral, 3 film-coated Formulation C5-12 tablets, single dose, non-fasting, Regimen A (C5-12): three film-coated Formulation C5-12 tablets, N = 172, read-out: AUC∞, geometric mean)?
The AUC(0-inf) was 4490 ng·h/mL.

And the Tmax ([4]; both sexes, human, in vivo, oral, 3 film-coated Formulation C5-12 tablets, single dose, non-fasting, Regimen A (C5-12): three film-coated Formulation C5-12 tablets, N = 172, read-out: Tmax, first value (geometric mean))?
The Tmax was 5 h.

And the half-life ([4]; both sexes, human, in vivo, oral, single dose, non-fasting, Regimen B (reference regimen): two Triple Tablets + one Single Tablet morning, one Single Tablet evening, N = 171)?
The half-life was 361 min.

What about the AUC(0-t) ([4]; both sexes, human, in vivo, oral, single dose, non-fasting, Regimen B (reference regimen): two Triple Tablets + one Single Tablet morning, one Single Tablet evening, N = 171, read-out: AUCt, geometric mean) of the same compound?
Its AUC(0-t) is 5470 ng·h/mL.

And the AUC(0-inf) ([4]; both sexes, human, in vivo, oral, single dose, non-fasting, Regimen B (reference regimen): two Triple Tablets + one Single Tablet morning, one Single Tablet evening, N = 171, read-out: AUC∞, geometric mean)?
The AUC(0-inf) was 5490 ng·h/mL.

What about the Tmax ([4]; both sexes, human, in vivo, oral, single dose, non-fasting, Regimen B (reference regimen): two Triple Tablets + one Single Tablet morning, one Single Tablet evening, N = 171, read-out: Tmax, first value (geometric mean)) of the same compound?
The Tmax was 5 h.

What about the t1/2 ([4]; single dose, non-fasting, Regimen A (C5-12): three film-coated Formulation C5-12 tablets, N = 172) of the same compound?
Its t1/2 is 6.15 h.

And the “Cmax, geometric mean” value ([4]; single dose, non-fasting, Regimen B (reference regimen): two Triple Tablets + one Single Tablet morning, one Single Tablet evening, N = 171)?
The value was 935 ng/mL.

And the “β, geometric mean” value ([5]; multiple dose 14 days, non-fasting, Regimen A (C5-12): three film-coated Formulation C5-12 tablets daily, N = 63)?
Its value is 0.129 h⁻¹.

What about the “Tmax, first value (geometric mean)” value [5, 12] of the same compound?
Its value is 4.0 h.

And the “β, geometric mean” value [5, 12]?
Its value is 0.128 h⁻¹.

And the “Exposures (C24,ss and AUC24,ss) versus the reference regimen” value ([5]; Formulation C5-12, point estimate and 90% confidence interval for the GMR within 0.80-1.25)?
Its value is “bioequivalent”.

What about the “Cmax,ss lower than Cmax,ss for the reference regimen” value [5, 11] of the same compound?
The value was 27%.

And the half-life [5, 13]?
Its half-life is 312 min.

What about the AUC [5, 13] of the same compound?
Its AUC is 8900 ng·h/mL.

What about the concentration at 24 h [5, 13] of the same compound?
Its concentration at 24 h is 34.6 ng/mL.

And the Cmax [5, 13]?
Its Cmax is 1500 ng/mL.

And the Tmax ([5]; both sexes, human, blood, oral, 3 film-coated Formulation C5-12 tablets daily, multiple dose 14 days, non-fasting, Regimen A (C5-12): three film-coated Formulation C5-12 tablets daily, N = 63, read-out: Tmax, first value (geometric mean))?
Its Tmax is 5 h.

What about the half-life [5, 14] of the same compound?
The half-life was 318 min.

And the AUC [5, 14]?
Its AUC is 9240 ng·h/mL.

What about the concentration at 24 h [5, 14] of the same compound?
The concentration at 24 h was 30.4 ng/mL.

And the Cmax [5, 14]?
Its Cmax is 1950 ng/mL.

And the bioavailability at 24 h ([5]; both sexes, human, blood, oral, Regimen A (C5-12) vs. B (reference regimen), read-out: Relative bioavailability, C24, point estimate)?
Its bioavailability at 24 h is 106%.

And the Solubility [6]?
Its Solubility is “low solubility”.

Reference: patent publication US10105365B2, “Solid antiviral dosage forms” (AbbVie Inc., priority 2014, dated 2018)
